How the values were obtained:
S. aureus Newman [1] = test: fitness (endpoint OD595 vs no drug) (fraction); higher = more growth
How it was run: (§1)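 Fitness is computed from the optical density at which cultures reach stationary phase, divided by the robust mean of no-drug control wells. Any value above 1 is set to 1. Cultures started at OD595 0.01 in 384-well plates with TSB, LB Lennox or CY at 37 °C, and OD595 was read every 30 min for 14 h against a first-reading background.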

B. subtilis 168 [2] = test: Bliss interaction score (quartile over a dose matrix) (fitness difference); higher = more antagonism (negative = synergy)
How it was run: (§2)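 The Bliss score is observed fitness minus expected fitness, where the expected value is the product of single-drug fitness values inferred from combination data. Fitness is OD595 at entry into stationary phase normalised to the plate's robust no-drug mean and capped at 1. Scores are reported as quartiles spanning technical, biological and donor/recipient replicates.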

S. aureus DSM 20231 = test: as above
How it was run: as §2

S. aureus Newman [3] = test: as above
How it was run: as §2

S. pneumoniae D39V [4] = test: as above
How it was run: as §2

S. pneumoniae D39V [5] = test: fitness (endpoint OD595 vs no drug) (fraction); higher = more growth
How it was run: as §1

B. subtilis 168 [6] = test: as above; settings: one replicate, main component drawn
How it was run: as §1
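For Bliss interaction score (quartile over a dose matrix) in this document: first quartile when negative (synergy) and third quartile when positive (antagonism).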
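For fitness (endpoint OD595 vs no drug) in this document: OD595 on entry to stationary phase over no-drug wells; at most 1.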

CC[C@H]1OC(=O)[C@H](C)[C@@H](O[C@H]2C[C@@](C)(OC)[C@@H](O)[C@H](C)O2)[C@H](C)[C@@H](O[C@@H]2O[C@H](C)C[C@H](N(C)C)[C@H]2O)[C@](C)(O)C[C@@H](C)CN(C)[C@H](C)[C@@H](O)[C@]1(C)O [Azithromycin] + C/C(=C\C(=O)OCCCCCCCCC(=O)O)C[C@@H]1OC[C@H](C[C@@H]2O[C@H]2[C@@H](C)[C@H](C)O)[C@@H](O)[C@H]1O [Pseudomonic acid]
fitness, S. aureus Newman [1], one replicate
Settings | first compound 0.125 µg/mL | first compound 0.25 µg/mL | first compound 0.5 µg/mL
partner 0.0313 µg/mL | 0.0547 | 0.0237 | 0
partner 0.0625 µg/mL | 0.0262 | 0.0139 | 0.0154
partner 0.125 µg/mL | 0.0288 | 0.0141 | 0.0119

Settings | Bliss interaction score
B. subtilis 168 [2] | -0.0541
S. aureus DSM 20231 | -0.0221
S. aureus Newman [3] | -0.0303
S. pneumoniae D39V [4] | -0.0833

CC1=C(C(=O)O)N2C(=O)[C@@H](NC(=O)[C@H](N)c3ccccc3)[C@H]2SC1 [Cephalexin] + C/C(=C\C(=O)OCCCCCCCCC(=O)O)C[C@@H]1OC[C@H](C[C@@H]2O[C@H]2[C@@H](C)[C@H](C)O)[C@@H](O)[C@H]1O [Pseudomonic acid]
fitness, one replicate
Settings | first compound 0.125 µg/mL | first compound 0.25 µg/mL | first compound 0.5 µg/mL | first compound 1 µg/mL | first compound 2 µg/mL
S. aureus Newman [1], partner 0.0313 µg/mL | – | – | 0.0692 | 0.0733 | 0.0904
S. aureus Newman [1], partner 0.0625 µg/mL | – | – | 0.036 | 0.0347 | 0.0466
S. aureus Newman [1], partner 0.125 µg/mL | – | – | 0.0496 | 0.0429 | 0.049
S. pneumoniae D39V [5], partner 0.03 µg/mL | 0.933 | 0.958 | ≥ 1 | – | –
S. pneumoniae D39V [5], partner 0.06 µg/mL | 0.733 | 0.828 | 0.893 | – | –
S. pneumoniae D39V [5], partner 0.12 µg/mL | 0.45 | 0.559 | 0.616 | – | –

fitness, S. pneumoniae D39V [5]
Settings | first compound 1 µg/mL | first compound 2 µg/mL | first compound 4 µg/mL
partner 0.03 µg/mL | 0.67 | – | 0.0998
partner 0.06 µg/mL | 0.6 | – | 0.123
partner 0.12 µg/mL | 0.38 | 0.215 | 0.122

Settings | Bliss interaction score
B. subtilis 168 [2] | 0.0311
S. aureus DSM 20231 | 0.0119
S. aureus Newman [3] | 0.0223
S. pneumoniae D39V [4] | 0.154

CC1=C(C(=O)O)N2C(=O)[C@@H](NC(=O)[C@H](N)c3ccccc3)[C@H]2SC1 [Cephalexin] + CCC(C)C1C(=O)NC(=C)C(=O)NC(C(=O)NC(CSCC(C(=O)N1)NC(=O)/C(=C/C)/NC(=O)C(C(C)CC)N)C(=O)NC2C(SCC(NC(=O)CNC(=O)C3CCCN3C2=O)C(=O)NC(CCCCN)C(=O)NC4C(SCC(NC(=O)CNC(=O)C(NC(=O)C(NC(=O)C(NC(=O)CNC4=O)C)CC(C)C)CCSC)C(=O)NC(CC(=O)N)C(=O)NC(CCSC)C(=O)NC(CCCCN)C(=O)NC5C(SCC6C(=O)NC(C(=O)NC(CSC(C(C(=O)N6)NC(=O)C(NC5=O)C)C)C(=O)NC(CO)C(=O)NC(C(C)CC)C(=O)NC(CC7=CN=CN7)C(=O)NC(C(C)C)C(=O)NC(=C)C(=O)NC(CCCCN)C(=O)O)CC8=CN=CN8)C)C)C)CC(C)C [Nisin]
fitness, B. subtilis 168 [6]
Settings | first compound 0.125 µg/mL | first compound 0.25 µg/mL | first compound 0.5 µg/mL | first compound 1 µg/mL
partner 0.5 µg/mL | 0.827 | 0.849 | 0.85 | –
partner 1 µg/mL | 0.819 | 0.833 | 0.845 | –
partner 1.25 µg/mL | – | ≥ 1 | 0.914 | 0.959
partner 1.6 µg/mL | – | 0.8 | 0.735 | 0.85
partner 2 µg/mL | 0.564 | 0.546 | 0.643 | –
partner 2.5 µg/mL | – | 0.323 | 0.638 | 0.621
partner 3.2 µg/mL | – | 0.0408 | 0.05 | 0.038
partner 4 µg/mL | 0.0357 | 0.0253 | 0.0342 | –
partner 5 µg/mL | – | 0.0428 | 0.0078 | 0.0511
partner 6.4 µg/mL | – | 0.055 | 0.052 | 0.0405
partner 8 µg/mL | 0.0286 | 0.0256 | 0.0219 | –
partner 16 µg/mL | 0.0223 | 0.0191 | 0.051 | –

fitness, S. pneumoniae D39V [5], one replicate, main component drawn
Settings | first compound 0.125 µg/mL | first compound 0.25 µg/mL | first compound 0.5 µg/mL
partner 1.6 µg/mL | 0.111 | 0.067 | 0.12
partner 3.2 µg/mL | 0.0257 | 0.0254 | 0.0215
partner 6.4 µg/mL | 0.0326 | 0.0252 | 0.0194

fitness, S. pneumoniae D39V [5], main component drawn
Settings | first compound 1 µg/mL | first compound 2 µg/mL | first compound 4 µg/mL
partner 0.4275 µg/mL | – | – | 0.0461
partner 0.855 µg/mL | – | 0.0896 | 0.05
partner 1.71 µg/mL | 0.0562 | 0.0571 | 0.0769

main component drawn
Settings | Bliss interaction score
B. subtilis 168 [2] | 0.0739
S. aureus DSM 20231 | 0.0845
S. aureus Newman [3] | 0.0391
S. pneumoniae D39V [4] | -0.0433

CC1=C(C(=O)O)N2C(=O)[C@@H](NC(=O)[C@H](N)c3ccccc3)[C@H]2SC1 [Cephalexin] + CCCCCCCCCC(=O)N[C@@H]1[C@H]([C@@H]([C@H](O[C@H]1OC2=C3C=C4C=C2OC5=C(C=C(C=C5)[C@H]([C@H]6C(=O)N[C@@H](C7=C(C(=CC(=C7)O)OC8[C@H]([C@H]([C@@H]([C@H](O8)CO)O)O)O)C9=C(C=CC(=C9)[C@H](C(=O)N6)NC(=O)[C@@H]4NC(=O)[C@@H]1C2=CC(=CC(=C2)OC2=C(C=CC(=C2)[C@H](C(=O)N[C@H](CC2=CC(=C(O3)C=C2)Cl)C(=O)N1)N)O)O)O)C(=O)O)O[C@H]1[C@@H]([C@H]([C@@H]([C@H](O1)CO)O)O)NC(=O)C)Cl)CO)O)O [Teicoplanin]
fitness, S. aureus Newman [1], main component drawn
Settings | first compound 0.25 µg/mL | first compound 0.5 µg/mL | first compound 1 µg/mL
partner 0.1562 µg/mL | ≥ 1 | ≥ 1 | ≥ 1
partner 0.3125 µg/mL | ≥ 1 | ≥ 1 | ≥ 1
partner 0.625 µg/mL | ≥ 1 | ≥ 1 | ≥ 1

fitness, S. aureus Newman [1], one replicate, main component drawn
Settings | first compound 0.5 µg/mL | first compound 1 µg/mL | first compound 2 µg/mL
partner 0.62 µg/mL | 0.827 | 0.855 | 0.847
partner 1.24 µg/mL | 0.77 | 0.796 | 0.739
partner 2.48 µg/mL | 0.565 | 0.498 | 0.587

main component drawn
Settings | Bliss interaction score
B. subtilis 168 [2] | 0.0688
S. aureus DSM 20231 | 0.0334
S. aureus Newman [3] | 0.0429
S. pneumoniae D39V [4] | 0.0339

— the supplement of paper PMC10627819
